Laboratory results reported in patent publication US6013628A, “Method for treating conditions of the eye using polypeptides” (Regents of the University of Minnesota, priority 1995, dated 2000).
No end group written: not given here.

Columns and labels:
[1] = tested on: dermal fibroblasts; conditions: Verdoorn et al. 1986; cited from earlier work
[2] = tested on: dermal fibroblasts; conditions: Verdoorn et al. 1986; cited from earlier work; remark: listed apart in the source
[3] = tested on: dermal fibroblasts; conditions: Verdoorn et al. 1986; cited from earlier work; remark: listed apart in the source
[4] = tested on: rabbit dermal fibroblasts; assay: Fibroblast-mediated collagen gel contraction (shrinkage) assay; type: cell-based; conditions: for % Contraction: 200 ug type IV collagen peptide, no peptide 36%; for % Contraction / Contraction: cells preincubated 1 hr, gel surface area by planimetry at day 7; for Effect on fibroblast-mediated collagen gel contraction: gels cast with and without fibronectin; for Contraction: 200 ug laminin peptide, no peptide 67%
Source text: As indicated above, proliferative vitreoretinopathy is the result of the proliferation and migration of fibroblasts, retinal pigment epithelial cells, and glial cells, and their organization into vitreous strands and epiretinal membranes. The vitreous strands and epiretinal membranes can contract, resulting in traction retinal detachment. The ability of rabbit dermal fibroblasts to cause contraction was examined in the collagen gel shrinkage model, which serves as an in vitro model of proliferative vitreoretinopathy (see Verdoon et al., Arch. Ophthalmol., 104, 1216-1219 (1986)). The ability of synthetic polypeptides derived from ECM molecules to inhibit contraction in the collagen gel shrinkage model using rabbit fibroblasts was also examined.
Fifty thousand rabbit dermal fibroblasts were suspended in 250 μl of fibroblast assay medium and mixed with 250 μl of Vitrogen and dispensed into the wells of a 48-well plate. The cells were preincubated with the desired polypeptide concentration (25, 50, 100, or 200 ug/ml) for one hour at 37° C. before mixing with the Vitrogen. Gelling occurred within 20 minutes after transfer of the mix of cell suspension and Vitrogen into an incubator at 37° C. with 5% CO2. The gels were overlaid with 250 μl of growth medium. All conditions were tested in duplicate wells. After 24 hours, the gels were detached from the sides of the wells by sweeping with a 27-gauge needle inserted at the interface between the plastic well and the gel (FIGS. 6-8).
Contraction of collagen gels was quantitated by use of planimetry. The gels were observed daily over the seven day period following detachment for evidence of contraction. The plates were photographed at the end of the seven days to record the amount of contraction. The contraction was measured by recording the area of each gel in each well off the photograph using a computer scanner. The area of the gels with polypeptide was compared to the area of the gels without the polypeptide. Planimetry is a two-dimensional measurement. […] The planimetry measurements accordingly underestimate the degree of contraction that actually occurred.
The collagen gels were cast with or without the incorporation of 25 ug/ml of fibronectin. […] These controls using deactivated cells indicate that cell growth and proliferation are required to effect gel shrinkage.

[5] = tested on: rabbit conjunctival fibroblasts; assay: Conjunctival fibroblast proliferation, tritiated thymidine assay; type: cell-based; conditions: day 4; mitomycin-C at 100 μg/ml (positive control); no drug control 8537 cpm
Source text: The failure of gluacoma treatment by filtration surgery is most often caused by scarring. Scarring requires fibroblast proliferation and fibrosis of the subconjunctive space. Proliferation of rabbit conjunctival fibroblasts was studied using the tritiated thymidine assay, which serves as an in vitro model of fibroblast proliferation in the rabbit eye (see Invest. Ophthalmol. Vis. Sci., 31, 1848-1855 (1990)). The ability of synthetic polypeptides derived from ECM molecules to inhibit conjuntival fibroblast proliferation was examined in this model.
Rabbit conjunctival fibroblasts were plated into 96-well microtiter plates at 1000 cells/well in 200 microliters of standard fibroblast culture media. Standard fibroblast culture media include Eagle's minimal essential medium containing 15% fetal bovine serum, penicillin G 100 IU/ml, streptomycin 100 μg/ml, and amphotericin B 0.25 μg/ml. Hep-II was added to the wells in concentrations ranging from 1 μg/ml to 1000 μg/ml after removing an equal volume of media to maintain 200 microliters/well. The peptide was used in concentrations of 1, 3, 7, 10, 25, 50, 100, 200, 300, 400, 500, 600, 800 and 1000 microgram/ml (experiments 1-14, respectively in FIG. 26). The tissue culture plates were incubated at 37° C. in a humidified atmosphere of 5% carbon dioxide. Two separate sets experiments were conducted. Each set of experiments was done in replicates of four. In the first set of experiments, tritiated thymidine was added 22 hours prior to each harvesting on days 4, 5, and 8. In the second set of experiments, tritiated thymidine was added 22 hours prior to each harvesting on days 4, 5, and 6. Wells with vehicle but no test compound served as negative controls (experiment #15) and cells with mitomycin-C at 100 μg/ml served as positive controls (experiment #16).

[6] = tested on: proliferative vitreoretinopathy rabbit model; conditions: cited from earlier work
[7] = 3H-heparin; cited from earlier work
[8] = tested on: proliferative vitreoretinopathy in rabbits; assay: Rabbit model of experimental proliferative vitreoretinopathy (intravitreal fibroblast injection); type: in vivo
Description: The rabbit model for proliferative vitreoretinopathy is described in Thresher et al., Graefe's Arch. Clin. Exp. Ophthalmol., 221, 192-198 (1984). Adult Dutch Belted rabbits of both sexes were used in the study. All animals were treated according to ARVO Animal Use Guidelines. All eyes were examined prior to initiation of a study and only clinically normal animals were used.
The rabbits were anesthetized using an intramuscular injection of a mix of ketamine (30 mg/kg) and xylazine (5 mg/kg). Pupils were dilated with Mydriacyl (Tropicamide) 1% and Neosynephrine 2.5% topical drops. Topical conjunctival anesthesia was provided with Proparacaine […] drops. All procedures were performed in an approved animal surgical facility. […] This site was used for subsequent intraocular injections, preventing iatrogenic retinal tears at the injection site. An intravitreal injection of 0.4 cc millipore-filtered 100% perfluoropropane gas was administered to produce a gas compression vitrectomy. Once the expansile gas bubble had absorbed, 5-10×10^4 dermal rabbit fibroblasts with or without 200 μg of polypeptide (injection volume-0.1 cc) were injected through a 27 gauge needle into the vitreous cavity. Under indirect ophthalmoscopic visualization, the tip of the needle was placed over the optic nerve head and the cells were injected in this location.
The animals were then observed for the development of proliferative vitreoretinopathy. The final stage of retinal detachment was scored from 0 to 7 using the standard grading scale shown below (see Hida et al., Graefe's Arch. Clin. Exp. Ophthalmol., 225, 1763-1769 (1991)).
Retinal photographs were taken with a wide field fundus camera (Canon) to document the final stage of retinal detachment. Animals were sacrificed while under deep anesthesia with an intravenous injection of 1 cc of euthanasia solution. The eyes were then immediately enucleated, fixed in 10% formalin, paraffin embedded, sectioned at 7 microns, and stained with hematoxylin and eosin for histology.
Three weeks following peripheral retinal cryopexy and gas compression vitrectomy, rabbit fibroblasts incubated for 1 hr with 200 ug of laminin polypeptide R37, type IV collagen polypeptide Hep-II, or BSS (balanced saline solution; control) were injected intravitreally. One eye of each rabbit received polypeptide incubated fibroblasts and the other eye received the control cells. Eyes were examined every three days, and the degree of retinal detachment was graded on the standard scale described above.

[9] = tested on: rabbit eye; assay: Intravitreal polypeptide toxicity in rabbit eye (ERG, clinical observations, histology); type: in vivo
Description: The toxicity of the polypeptides was determined by three techniques:
ERG. Electroretinograms (ERG) were carried out as a functional indicator of toxicity of a polypeptide treatment. Polypeptides were injected at 200 ug and 400 ug (twice the dose that inhibited proliferative vitreoretinopathy), and ERG measurements were performed three times in each eye at various times post-injection (1 hr to 6 weeks).
Clinical observations. Observation by indirect ophthalmoscopy and slit lamp examination were performed to probe for evidence of toxicity.
Histology. Following ERG and clinical observations, the eyes were immediately enucleated, fixed in 10% formalin, paraffin embedded, sectioned at 7 microns, and stained with hematoxylin and eosin.

[10] = tested on: fibroblasts; conditions: cited from earlier work
[11] = tested on: human scleral fibroblasts; conditions: cited from earlier work
[12] = tested on: retinal pigmented epithelial cells; conditions: cited from earlier work

COc1cc2c(c(OC)c1OC)-c1ccc(OC)c(=O)cc1[C@@H](NC(C)=O)CC2 [colchicine]
Inhibition of gel contraction [1]: most effective at inhibiting gel contraction | Inhibition of cell proliferation [2]: inhibited cell proliferation

C=C1[C@@H](C)[C@H]2[C@H](Cc3ccccc3)NC(=O)[C@]23OC(=O)/C=C/[C@H](O)CCC[C@@H](C)C/C=C/[C@H]3[C@@H]1O [cytochalasin B]
Inhibition of cell proliferation [2]: inhibited cell proliferation | Inhibition of cell migration [3]: minimal effect on cell migration

COc1cccc2c1C(=O)c1c(O)c3c(c(O)c1C2=O)C[C@@](O)(C(C)=O)C[C@@H]3O[C@H]1C[C@H](N)[C@H](O)[C@H](C)O1 [daunomycin]
Inhibition of gel contraction [1]: not found to inhibit contraction | Inhibition of cell proliferation [2]: most effective | Inhibition of cell migration [3]: most inhibited

CO[C@@]12[C@H](COC(N)=O)C3=C(C(=O)C(C)=C(N)C3=O)N1C[C@@H]1N[C@@H]12 [mitomycin-C, reference compound]
Gel contraction by pretreated fibroblasts ([4]; fibroblasts pretreated with mitomycin C, data not shown): did not cause gel contraction | Thymidine uptake [5]: 375 cpm

CC(=O)O[C@H]1C(=O)[C@@]2(C)[C@H]([C@H](OC(=O)c3ccccc3)[C@]3(O)C[C@H](OC(=O)[C@H](O)[C@@H](NC(=O)c4ccccc4)c4ccccc4)C(C)=C1C3(C)C)[C@]1(OC(C)=O)CO[C@@H]1C[C@@H]2O [taxol]
Inhibition of cell proliferation [2]: most effective | Traction retinal detachment induced by injected chorioretinal fibroblasts ([6]; 0.5 μg intravitreal injection): reduces traction retinal detachment

CC1(C)O[C@@H]2C[C@H]3[C@@H]4CCC5=CC(=O)C=C[C@]5(C)[C@@]4(F)[C@@H](O)C[C@]3(C)[C@]2(C(=O)CO)O1 [triamcinolone acetonide]
Incidence of retinal detachment ([6]; eyes injected with triamcinolone acetonide, reduced from 93%): 75%

GEFYFDLRLKGDK [Hep-III, GEFYFDLRLKGDK]
% Contraction [4]: 33% | Heparin binding [7]: reported to bind heparin

GVKGDKGNPGWPGAP [IV-H1, GVKGDKGNPGWPGAP]
% Contraction [4]: 72% | Effect on fibroblast-mediated collagen gel contraction [4]: frequently found to promote contraction

KATPMLKMRTSFHGCIK [R37, Lys-Ala-Thr-Pro-Met-Leu-Lys-Met-Arg-Thr-Ser-Phe-His-Gly-Cys-Ile-Lys]
Contraction [4]: 12% | Effect on fibroblast-mediated collagen gel contraction [4]: most potent inhibitory effects on contraction | Retina appearance (stage 0-7 scale), fundus photograph ([8]; 200 ug with 100,000 fibroblasts, three weeks after fibroblast injection): normal (Stage 0) | # Detached Retinas (%) ([8]; Expt II: 200 ug, 50,000 cells, RD staged at day 21, control 40%): 0% | # Detached Retinas ([8]; Expt II: 200 ug, 50,000 cells, RD staged at day 21, total 5 eyes, control 2 of 5): 0 | # Detached Retinas (%) ([8]; Expt III: 200 ug, 100,000 cells, RD staged at day 7, control 100%): 14% | # Detached Retinas ([8]; Expt III: 200 ug, 100,000 cells, RD staged at day 7, total 7 eyes, control 7 of 7): 1 | # Detached Retinas (%) ([8]; Expt IV: 200 ug, 80,000 cells, RD staged at day 21, control 100%): 25% | # Detached Retinas ([8]; Expt IV: 200 ug, 80,000 cells, RD staged at day 21, total 4 eyes, control 3 of 3): 1 | Degree of retinal detachment ([8]; fibroblasts incubated 1 hr with 200 ug polypeptide, intravitreal): inhibited the degree of retinal detachment | Retinal histopathology ([9]; following injection of 400 ug): normal rabbit retinal histopathology | Toxic effects by clinical observations, histopathology or ERG ([9]; intravitreal injection of 200 ug or 400 ug): No toxic effects | Heparin binding [7]: bind

KEGYKVRLDLNITLEFRTTSK [R38]
Contraction [4]: 74% | Effect on fibroblast-mediated collagen gel contraction [4]: frequently found to promote contraction | Heparin binding [7]: bind

KNLEISRSTFDLLRNSYGVRK [R26]
Contraction [4]: 45% | Effect on fibroblast-mediated collagen gel contraction [4]: Inhibition of gel contraction was also observed | Heparin binding [7]: do not bind

KNNQKSEPLIGRKKT [FN-C/H-IIa]
Heparin binding [7]: known to bind

SPPRRARVT [FN-C/H-IV, Ser-Pro-Pro-Arg-Arg-Ala-Arg-Val-Thr]
Effect on fibroblast-mediated collagen gel contraction [4]: Inhibition of gel contraction was also observed | Heparin binding [7]: known to bind

TAGSCLRKFSTM [Hep-I, TAGSCLRKFSTM]
% Contraction [4]: 33% | Heparin binding [7]: reported to bind heparin

TSLRKALLHAPTGSYSDGQ [R35, TSLRKALLHAPTGSYSDGQ]
Contraction [4]: 63% | Heparin binding [7]: do not bind

WQPPRARI [FN-C/H-V]
Heparin binding [7]: known to bind

YEKPGSPPREVVPRPRPGV [FN-C/H-I]
Heparin binding [7]: known to bind

YRVRVTPKEKTGPMKE [FN-C/H-III]
Heparin binding [7]: known to bind

heparin
Fibroblast-mediated contraction of type I collagen gels [10]: inhibit | Proliferation of human scleral fibroblasts [11]: inhibits the proliferation | Proliferation of retinal pigmented epithelial cells [12]: inhibits the proliferation | Postoperative bleeding ([6]; rabbit, in vivo): increased postoperative bleeding was observed | Development of intraocular fibrin membranes ([6]; standardized PVR rabbit model): prevent the development of intraocular fibrin membranes
